In patent US9546157B2, “Asymmetric piperidinyl-substituted ureas as medicines” (Helsinn Healthcare SA, priority 2014, dated 2017):

Tests used:
[1] = tested on: C57BL/6J mice; experiment: Food intake test in mouse (GHSR1a antagonists); type: in vivo
Description: Male C57BL/6J mice, 18-22 g body weight, were fasted overnight (16 h before compound administration) and placed in a regular light dark cycle (6:00-18:00 light/18:00-6:00 dark). After 1 wk acclimation, animals were sorted into two groups (n=6 each, 2 per cage) based on body weight. Animals in group one were be treated with vehicle and animals in group 2 were treated with the test agent (n=6 for each group). The cumulative food intake was evaluated at 1, 2, 4, 8 and 24 hrs after drug or vehicle treatment. Food intake was measured by subtracting uneaten food from the initial premeasured food.

[2] = target: T1, GHSR1a (Homo sapiens, UniProt Q92847); experiment: Calcium FLIPR assay, GHSR-1a agonism; type: cell-based; parameters: Emax: unit not given here; settings: HEK293/GHSR1a cells
T1 construct: expressed in transfected cells; host or cells: HEK293
T1 sequence (Q92847 whole entry): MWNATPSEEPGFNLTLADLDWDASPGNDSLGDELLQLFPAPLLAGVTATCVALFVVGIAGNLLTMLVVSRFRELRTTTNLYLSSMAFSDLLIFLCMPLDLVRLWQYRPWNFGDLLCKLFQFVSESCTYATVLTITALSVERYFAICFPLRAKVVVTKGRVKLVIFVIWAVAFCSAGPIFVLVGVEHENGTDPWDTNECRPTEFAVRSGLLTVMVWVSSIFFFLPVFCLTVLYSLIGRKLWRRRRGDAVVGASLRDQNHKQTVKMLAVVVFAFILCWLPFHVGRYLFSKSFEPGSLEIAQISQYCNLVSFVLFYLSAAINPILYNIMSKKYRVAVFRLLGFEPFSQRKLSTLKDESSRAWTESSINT
Outline: (§1)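 HEK293 cells expressing GHSR1a, seeded 24 hr earlier and loaded with calcium dye for 30-60 min at room temperature or 37° C, were read by FLIPR fluorescence. Agonism: compound added at t=20 sec, calcium followed 2 minutes. Antagonism: compound plus ghrelin (10 nM) at t=20 sec; potency from reduction of ghrelin response.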

[3] = target: T1, GHSR1a; experiment: Calcium FLIPR assay, GHSR-1a antagonism (reduction of ghrelin response); type: cell-based; settings: HEK293/GHSR1a cells, ghrelin 10 nM
Outline: as §1

[4] = Metabolic Stability (H = Human); type: in vitro ADME
[5] = Metabolic Stability (M = Mouse); type: in vitro ADME
[6] = Mus musculus, ip, 1 h, i.p. 10 mg/kg

| SMILES | inhibition in vivo at 10 mg/kg [1, 6] | EC50 [2] | IC50 [3] | Metabolic Stability H [4] | Metabolic Stability M [5] | Mouse Food Intake, result in words ([1]; PO, dose not given) | also measured |
| --- | --- | --- | --- | --- | --- | --- | --- |
| C#Cc1ccc(C(C)NC(=O)N(C)C2CCN(C)CC2)c(Cl)c1Cl (centres unmarked) [Compound H0603, 3-(1-(2,3-dichloro-4-ethynylphenyl)ethyl)-1-methyl-1-(1-methylpiperidin-4-yl)urea] | 34% | > 30000 nM | 2 nM | High H High M | High H High M | – | inhibition in vivo at 0.1 mg/kg ([1]; Mus musculus, ip, 1 h, i.p. 0.1 mpk): 71%; inhibition in vivo at 1 mg/kg ([1]; Mus musculus, ip, 1 h, i.p. 1 mpk): 65%; Mouse Food Intake, result in words ([1]; SC, dose not given): SC NSE; Mouse Food Intake inhibition, activity up to ([1]; i.p. 1 mpk): ≤ 24 h |
| CC(NC(=O)N(C)C1CCN(C)CC1)c1ccc(C#Cc2nccs2)c(Cl)c1Cl (centres unmarked) [Compound H0754, 3-(1-(2,3-dichloro-4-(thiazol-2-ylethynyl)phenyl)ethyl)-1-methyl-1-(1-methylpiperidin-4-yl)urea] | 74% | > 30000 nM | 11 nM | High H High M | High H High M | no effect | Mouse Food Intake, result in words ([1]; PO + ANA (ANAM), mice, dose not given): no effect |
| CC(NC(=O)N(C)C1CCN(C)CC1)c1ccc(C#Cc2ccsc2)c(Cl)c1Cl (centres unmarked) [Compound H0759, 3-(1-(2,3-dichloro-4-(thiophen-3-ylethynyl)phenyl)ethyl)-1-methyl-1-(1-methylpiperidin-4-yl)urea] | 85% | > 30000 nM | 7 nM | High H High M | High H High M | no effect | – |
| CC(NC(=O)N(C)C1CCN(C)CC1)c1ccc(-c2ccsc2)c(Cl)c1Cl (centres unmarked) [Compound H0498, 3-(1-(2,3-dichloro-4-(thiophen-3-yl)phenyl)ethyl)-1-methyl-1-(1-methylpiperidin-4-yl)urea] | – | > 30000 nM | 29 nM | Medium | High | – | inhibition in vivo at 30 mg/kg ([1]; Mus musculus, ip, 1 h, i.p. 30 mg/kg): 76% |
| CN1CCC(N(O)C(=O)NC(CC2CC2)c2ccc(-c3cnccn3)c(Cl)c2Cl)CC1 (centres unmarked) [Compound H0761, 3-(2-cyclopropyl-1-(2,3-dichloro-4-(pyrazin-2-yl)phenyl)ethyl)-1-hydroxy-1-(1-methylpiperidin-4-yl)urea] | 63% | 3 nM | 0.2 nM | High H High M | High H High M | NSE | Mouse Food Intake, result in words ([1]; PO, fasted mice, dose not given): No activity; FI increase ([1]; PO, fed mice): 215%; Mouse Food Intake, result in words ([1]; fed mice, route not clear): No activity; Emax [2]: 2907 |
| CC(NC(=O)N(C)C1CCN(C)CC1)c1ccc(-c2cnccn2)c(Cl)c1Cl (centres unmarked) [Compound H0700, 3-(1-(2,3-dichloro-4-(pyrazin-2-yl)phenyl)ethyl)-1-methyl-1-(1-methylpiperidin-4-yl)urea] | – | > 30000 nM | 7 nM | High H High M | High H High M | – | inhibition in vivo at 10 mg/kg ([1]; Mus musculus, 1 h, Fed mice, 10 mg/kg): 71%; inhibition in vivo at 10 mg/kg ([1]; Mus musculus, ip, 2 h, i.p. 10 mg/kg): 41% |
| Cc1cncc(-c2ccc(C(C)NC(=O)N(C)C3CCN(C)CC3)c(Cl)c2Cl)c1 (centres unmarked) [Compound H0639, 3-(1-(2,3-dichloro-4-(5-methylpyridin-3-yl)phenyl)ethyl)-1-methyl-1-(1-methylpiperidin-4-yl)urea] | – | > 30000 nM | 48 nM | Medium H Medium M | Medium H Medium M | – | Mouse Food Intake, result in words ([1]; i.p. 10 mg/kg): NSE (10 mg/kg) |
| CC(NC(=O)N(C)C1CCN(C)CC1)c1ccc(C#CC2CC2)c(Cl)c1Cl (centres unmarked) [Compound H0764, 3-(1-(2,3-dichloro-4-(cyclopropylethynyl)phenyl)ethyl)-1-methyl-1-(1-methylpiperidin-4-yl)urea] | 91% | 14 nM | 10 nM | High H High M | High H High M | – | inhibition in vivo at 30 mg/kg ([1]; Mus musculus, po, 2 h, PO 30 mg/kg): 70%; inhibition in vivo at 30 mg/kg ([1]; Mus musculus, sc, 1 h, SC 30 mg/kg): 53%; Emax [2]: 1352 |
